Test results from patent US12486267B2, “Imidazo[1,2-A]pyridine and [1,2,4]triazolo[1,5-A]pyridine derivatives as TLR9 inhibitors for the treatment of fibrosis” (BRISTOL-MYERS SQUIBB COMPANY, priority 2020, dated 2025).

How the values were obtained:
Type in all cases: cell-based
human TLR9 = molecular target: T1, human TLR9 (Homo sapiens, UniProt Q9NR96); assay: TLR9 inhibition reporter assay (HEK-Blue cells, SEAP reporter); settings: HEK-Blue cells overexpressing human TLR9; stimulated with ODN2006 5 nM; 22 hour incubation; SEAP readout
T1 sequence (Q9NR96 26-1032): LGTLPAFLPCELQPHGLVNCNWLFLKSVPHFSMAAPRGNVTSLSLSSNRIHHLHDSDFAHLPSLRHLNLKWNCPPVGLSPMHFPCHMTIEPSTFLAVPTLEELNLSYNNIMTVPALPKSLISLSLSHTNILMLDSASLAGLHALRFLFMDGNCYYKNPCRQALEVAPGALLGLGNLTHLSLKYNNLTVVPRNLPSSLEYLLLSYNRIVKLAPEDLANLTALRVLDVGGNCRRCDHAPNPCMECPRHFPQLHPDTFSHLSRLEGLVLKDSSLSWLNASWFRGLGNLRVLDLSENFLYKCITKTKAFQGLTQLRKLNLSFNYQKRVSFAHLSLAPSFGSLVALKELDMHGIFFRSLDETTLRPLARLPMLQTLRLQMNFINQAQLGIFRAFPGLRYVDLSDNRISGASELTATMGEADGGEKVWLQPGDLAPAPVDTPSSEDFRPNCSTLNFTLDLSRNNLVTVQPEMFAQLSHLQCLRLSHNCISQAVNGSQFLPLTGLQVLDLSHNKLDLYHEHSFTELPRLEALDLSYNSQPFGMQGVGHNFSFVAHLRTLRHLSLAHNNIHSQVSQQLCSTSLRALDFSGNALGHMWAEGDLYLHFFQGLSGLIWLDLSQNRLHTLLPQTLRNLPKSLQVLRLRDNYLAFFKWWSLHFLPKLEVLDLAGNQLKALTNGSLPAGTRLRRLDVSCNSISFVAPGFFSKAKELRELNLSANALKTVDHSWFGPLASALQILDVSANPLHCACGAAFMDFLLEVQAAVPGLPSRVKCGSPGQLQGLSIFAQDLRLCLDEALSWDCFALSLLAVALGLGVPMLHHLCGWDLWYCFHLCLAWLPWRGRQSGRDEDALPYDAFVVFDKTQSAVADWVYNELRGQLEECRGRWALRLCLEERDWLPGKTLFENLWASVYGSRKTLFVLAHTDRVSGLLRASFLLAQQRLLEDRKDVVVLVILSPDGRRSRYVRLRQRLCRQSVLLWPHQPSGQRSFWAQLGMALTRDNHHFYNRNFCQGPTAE
Summary of the method: (§1)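 HEK-Blue cells with an NF-κB/AP-1-driven SEAP reporter were pre-treated 30 min at room temperature with compound (0.05 nM–50 μM), then stimulated with gardiquimod 7.5 μM (TLR7), R848 15.9 μM (TLR8) or ODN2006 5 nM (TLR9). After 22 h at 37 °C, SEAP was read; % inhibition was referenced to agonist+DMSO and known-inhibitor wells.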

human TLR7 = molecular target: T2, human TLR7 (Homo sapiens, UniProt Q9NYK1); assay: TLR7 inhibition reporter assay (HEK-Blue cells, SEAP reporter); settings: HEK-Blue cells overexpressing human TLR7; stimulated with gardiquimod 7.5 μM; 22 hour incubation; SEAP readout
T2 sequence (Q9NYK1 27-1049): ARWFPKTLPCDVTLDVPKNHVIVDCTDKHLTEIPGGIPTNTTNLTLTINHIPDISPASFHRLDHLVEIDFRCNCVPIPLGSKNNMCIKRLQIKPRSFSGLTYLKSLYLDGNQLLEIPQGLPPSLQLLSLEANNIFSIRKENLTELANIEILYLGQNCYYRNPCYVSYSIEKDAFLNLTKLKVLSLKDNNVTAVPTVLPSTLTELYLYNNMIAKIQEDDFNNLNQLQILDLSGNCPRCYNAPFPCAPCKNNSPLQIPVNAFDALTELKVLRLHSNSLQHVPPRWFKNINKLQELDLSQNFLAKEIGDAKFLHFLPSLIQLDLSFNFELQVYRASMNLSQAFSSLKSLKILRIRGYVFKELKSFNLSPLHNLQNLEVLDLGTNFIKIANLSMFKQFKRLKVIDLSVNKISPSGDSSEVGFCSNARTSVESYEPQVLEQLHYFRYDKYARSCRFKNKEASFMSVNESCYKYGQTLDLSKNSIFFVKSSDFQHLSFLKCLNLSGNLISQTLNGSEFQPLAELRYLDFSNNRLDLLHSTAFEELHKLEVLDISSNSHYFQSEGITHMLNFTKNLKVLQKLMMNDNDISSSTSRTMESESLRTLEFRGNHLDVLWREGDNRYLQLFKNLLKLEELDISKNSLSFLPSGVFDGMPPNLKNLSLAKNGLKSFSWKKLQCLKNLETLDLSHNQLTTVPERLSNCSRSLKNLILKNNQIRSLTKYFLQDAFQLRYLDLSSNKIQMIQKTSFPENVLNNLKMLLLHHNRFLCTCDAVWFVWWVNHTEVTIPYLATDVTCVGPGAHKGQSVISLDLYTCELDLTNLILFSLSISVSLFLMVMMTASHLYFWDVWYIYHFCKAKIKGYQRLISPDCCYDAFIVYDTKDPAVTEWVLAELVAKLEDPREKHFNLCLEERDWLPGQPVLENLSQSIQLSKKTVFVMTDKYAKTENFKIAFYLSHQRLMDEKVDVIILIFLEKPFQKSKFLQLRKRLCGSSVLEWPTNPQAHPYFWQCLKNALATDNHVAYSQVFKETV
Summary of the method: as §1

human TLR8 = molecular target: T3, human TLR8 (Homo sapiens, UniProt Q9NR97); assay: TLR8 inhibition reporter assay (HEK-Blue cells, SEAP reporter); settings: HEK-Blue cells overexpressing human TLR8; stimulated with R848 15.9 μM; 22 hour incubation; SEAP readout
T3 sequence (Q9NR97 27-1041): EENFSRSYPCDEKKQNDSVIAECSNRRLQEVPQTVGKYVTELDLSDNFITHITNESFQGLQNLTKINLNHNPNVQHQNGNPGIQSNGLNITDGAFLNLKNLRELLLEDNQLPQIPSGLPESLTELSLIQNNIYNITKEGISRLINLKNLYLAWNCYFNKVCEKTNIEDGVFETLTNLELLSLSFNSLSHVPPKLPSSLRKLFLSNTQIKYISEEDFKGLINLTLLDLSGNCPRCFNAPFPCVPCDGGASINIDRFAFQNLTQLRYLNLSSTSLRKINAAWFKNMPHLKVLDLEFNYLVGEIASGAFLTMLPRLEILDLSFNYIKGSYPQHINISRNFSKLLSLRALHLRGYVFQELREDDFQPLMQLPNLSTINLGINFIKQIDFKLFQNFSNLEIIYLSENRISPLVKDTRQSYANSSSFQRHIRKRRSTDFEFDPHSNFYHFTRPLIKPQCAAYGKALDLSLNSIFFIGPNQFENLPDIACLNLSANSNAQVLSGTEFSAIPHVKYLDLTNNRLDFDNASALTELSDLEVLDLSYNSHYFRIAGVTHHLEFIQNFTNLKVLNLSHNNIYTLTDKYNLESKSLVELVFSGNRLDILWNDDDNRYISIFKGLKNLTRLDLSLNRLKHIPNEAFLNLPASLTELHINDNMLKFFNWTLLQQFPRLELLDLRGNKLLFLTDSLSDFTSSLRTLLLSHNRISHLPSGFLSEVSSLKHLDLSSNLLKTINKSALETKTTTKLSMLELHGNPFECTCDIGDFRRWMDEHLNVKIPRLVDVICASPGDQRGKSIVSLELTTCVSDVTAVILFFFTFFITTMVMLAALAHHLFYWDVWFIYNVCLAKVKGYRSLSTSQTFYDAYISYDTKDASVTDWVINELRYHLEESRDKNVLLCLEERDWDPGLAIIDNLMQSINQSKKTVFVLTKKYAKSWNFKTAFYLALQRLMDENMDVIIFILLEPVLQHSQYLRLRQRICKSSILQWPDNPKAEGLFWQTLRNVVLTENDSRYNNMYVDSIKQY
Summary of the method: as §1

Row | Structure (SMILES) | IC50 (human TLR9) [nM] | IC50 (human TLR7) [nM] | IC50 (human TLR8) [nM]
1 | CS(=O)(=O)c1ccc(-c2cn3ccc(C4CCN(C5CCN(C6CCOCC6)CC5)CC4)c(F)c3n2)cc1 [Example 133, 8-fluoro-2-(4-(methylsulfonyl)phenyl)-7-(1′-(tetrahydro-2H-pyran-4-yl)-[1,4′-bipiperidin]-4-yl)imidazo[1,2-a]pyridine] | 6 | 1900 | > 50000
2 | CC(C)N1CCC(N2CCC(c3cn4cc(-c5ccc(S(C)(=O)=O)cc5)nc4cc3F)CC2)CC1 [Example 70, 7-fluoro-6-(1′-isopropyl-[1,4′-bipiperidin]-4-yl)-2-(4-(methylsulfonyl)phenyl) imidazo[1,2-a]pyridine] | 303 | 22900 | > 50000
3 | COc1ccc(-c2cn3c(n2)CCC(C2CCN(C4CC5(C4)CN(CC(C)C)C5)CC2)C3)cc1OC (racemic) [Example 52, 2-(3,4-dimethoxyphenyl)-6-(1-(2-isobutyl-2-azaspiro[3.3]heptan-6-yl)piperidin-4-yl)-5,6,7,8-tetrahydroimidazo[1,2-a]pyridine] | 114 | 18000 | > 50000
4 | COc1ccc(-c2cn3cc(C4CCN(C5CCN(C(C)C)CC5)CC4)ccc3n2)cc1OC [Example 11, 2-(3,4-dimethoxyphenyl)-6-(1′-isopropyl-[1,4′-bipiperidin]-4-yl)imidazo[1,2-a]pyridine] | 77 | 5600 | > 50000
5 | COc1ccc(-c2cn3cc(C4CCN(C5CC6(C5)CN(C(C)C)C6)CC4)cc(C)c3n2)cc1OC [Example 13, 2-(3,4-dimethoxyphenyl)-6-(1-(2-isopropyl-2-azaspiro[3.3]heptan-6-yl)piperidin-4-yl)-8-methylimidazo[1,2-a]pyridine] | 163 | 47000 | > 50000
6 | COc1ccc(-c2cn3cc(C4CCN(C5CC6CCC(C5)N6CC(C)C)CC4)cc(C)c3n2)cc1OC (single isomer, unassigned) [Example 18, 2-(3,4-dimethoxyphenyl)-6-(1-(8-isobutyl-8-azabicyclo[3.2.1]octan-3-yl)piperidin-4-yl)-8-methylimidazo[1,2-a]pyridine] | 48 | 3300 | > 50000
7 | COc1ccc(-c2cn3cc(C4CCN(C5CCN(CC(C)C)CC5)CC4)ccc3n2)cc1OC [Example 12, 2-(3,4-dimethoxyphenyl)-6-(1′-isobutyl-[1,4′-bipiperidin]-4-yl)imidazo[1,2-a]pyridine] | 122 | 2700 | > 50000
8 | COc1ccc(-c2cn3c(n2)CCC(C2CCN(C4CCN(C(=O)C5CC5)CC4)CC2)C3)cc1OC (single isomer, unassigned) [Example 43, cyclopropyl(4-(2-(3,4-dimethoxyphenyl)-5,6,7,8-tetrahydroimidazo[1,2-a]pyridin-6-yl)-[1,4′-bipiperidin]-1′-yl)methanone] | 375 | 45000 | > 50000
9 | Cc1cc(C2CCN(C3CC4CCC(C3)N4C(C)C)CC2)cn2cc(-c3ccc(S(C)(=O)=O)cc3)nc12 (single isomer, unassigned) [Example 63, 6-(1-(8-isopropyl-8-azabicyclo[3.2.1]octan-3-yl)piperidin-4-yl)-8-methyl-2-(4-(methylsulfonyl)phenyl)imidazo[1,2-a]pyridine] | 97 | 5800 | 9500
10 | CS(=O)(=O)c1ccc(-c2cn3cc(C4CCN(C5CCCN(C6CCOCC6)CC5)CC4)cc(F)c3n2)cc1 (single isomer, unassigned) [Example 130, 8-fluoro-2-(4-(methylsulfonyl)phenyl)-6-(1-(1-(tetrahydro-2H-pyran-4-yl)azepan-4-yl)piperidin-4-yl)imidazo[1,2-a]pyridine] | 10 | > 50000 | 22500
11 | COc1ccc(-c2cn3cc(C4CC5CCC(C4)N5C4CCN(C5CC5)CC4)cc(C)c3n2)cc1OC (single isomer, unassigned) [Example 26, 6-(8-(1-cyclopropylpiperidin-4-yl)-8-azabicyclo[3.2.1]octan-3-yl)-2-(3,4-dimethoxyphenyl)-8-methylimidazo[1,2-a]pyridine] | 86 | 2000 | > 50000
12 | COc1ccc(-c2cn3cc(C4CCN(C5CC6CCC(C5)N6CC5CC5)CC4)cc(C)c3n2)cc1OC (single isomer, unassigned) [Example 20, 6-(1-(8-(cyclopropylmethyl)-8-azabicyclo[3.2.1]octan-3-yl)piperidin-4-yl)-2-(3,4-dimethoxyphenyl)-8-methylimidazo[1,2-a]pyridine] | 23 | 1500 | > 50000
13 | CS(=O)(=O)c1ccc(-c2cn3cc(C4CCN(C5CCCN(C6CCOCC6)CC5)CC4)cc(F)c3n2)cc1 (single isomer, unassigned) [Example 129, 8-fluoro-2-(4-(methylsulfonyl)phenyl)-6-(1-(1-(tetrahydro-2H-pyran-4-yl)azepan-4-yl)piperidin-4-yl)imidazo[1,2-a]pyridine] | 20 | > 50000 | > 50000
